Measurements: patent US20100324087A1, “COMBINED USE OF ANGIOGENESIS INHIBITOR AND TAXANE” (EISAI R&D MANAGEMENT CO., LTD., priority 2008, published 2010)

System: Human non-small-cell lung cancer cell line A549
Assay: Combination use of E7080 and docetaxel in subcutaneous transplanted models (in vivo) of A549
Settings: alone, A549 subcutaneous transplant, nude mouse
Procedure: Human non-small-cell lung cancer cell line A549 (purchased from Dainippon Sumitomo Pharma Co., Ltd) was cultured in RPMI1640 (containing 10% FBS) in a 5% carbon dioxide gas incubator at 37° C. to about 80% confluence, and then the cells were treated with trypsin-EDTA and then collected. A 1×10^8 cells/mL suspension was prepared with a phosphate buffer, which was further added with an equivalent amount of matrigel matrix to give a 5×10^7 cells/mL suspension, and each 0.1 mL of the resulting cell suspension was subcutaneously transplanted to a nude mouse at the side of its body. Fourteen days after the transplantation, 4-(3-chloro-4-(cyclopropylaminocarbonyl)aminophenoxy)-7-methoxy-6-quinolinecarboxamide (hereinafter, also referred to as “E7080”) was orally administered for 10 or 30 mg/kg, once a day for four weeks, while 15 mg/kg of docetaxel was intravenously administered alone or in combination every four days for three times. The major and minor axes of tumors were measured with Digimatic caliper (Mitsutoyo Corporation), and tumor volumes and relative tumor volumes were calculated according to the following formulae:
Tumor Volume (TV)=Major axis of tumor (mm)×(Minor axis of tumor)^2 (mm^2)/2
Relative Tumor Volume (RTV)=Tumor volume on measurement day/Tumor volume on the first administration day.

Structure (SMILES) | Relative tumor volume on Day 29, Average ± standard deviation (Docetaxel 15 mg/kg intravenously every four days for three times) | Relative tumor volume on Day 29, Average ± standard deviation (E7080 10 mg/kg orally once a day for four weeks) | Relative tumor volume on Day 29, Average ± standard deviation (E7080 30 mg/kg orally once a day for four weeks)
CC(=O)O[C@@]12CO[C@@H]1C[C@H](O)[C@@]1(C)C(=O)[C@H](O)C3=C(C)[C@@H](OC(=O)[C@H](O)[C@@H](NC(=O)OC(C)(C)C)c4ccccc4)C[C@@](O)([C@@H](OC(=O)c4ccccc4)[C@H]21)C3(C)C [Docetaxel, docetaxel, reference compound] | 1.48 ± 0.29 |  | 
COc1cc2nccc(Oc3ccc(NC(=O)NC4CC4)c(Cl)c3)c2cc1C(N)=O [E7080, 4-(3-chloro-4-(cyclopropylaminocarbonyl)aminophenoxy)-7-methoxy-6-quinolinecarboxamide] |  | 1.47 ± 0.16 | 1.14 ± 0.30
